Experimental data as given in patent US20250243488A1, “METHODS OF MODULATING PROGRANULIN EXPRESSION USING ANTISENSE OLIGONUCLEOTIDES TARGETING REGULATORY RNAS” (Camp4 Therapeutics Corporation, priority 2022, published 2025).
Oligonucleotides are written 5' to 3', each unit as a sugar letter and its base; * is a phosphorothioate linkage, no mark a phosphodiester; rarer units and linkages stand in square brackets, end groups in braces. Plain capitals give the bases only. e = 2'-O-(2-methoxyethyl) (MOE); l = locked nucleic acid (LNA); [5mC] = 5-methylcytosine; d = 2'-deoxy (DNA)

System: GRN mRNA
Test: GRN mRNA qPCR in SK-N-AS cells transfected with ASOs
Format: cell-based, human
Conditions: SK-N-AS; for hGRN mRNA FC / 120 nM FC (GRN mRNA): 120 nM
Description: The best ASOs based on increased GRN mRNA fold-change were selected for further characterization in dose titration studies. Briefly, human neuroblastoma SK-N-AS cells were transfected with 20 to 160 nM of ASOs CO-3423, CO-3431, CO-3463, and CO-3503. A steric non-targeting control ASO (sNTC) was used as a control. Cells were collected for mRNA analysis after 48 hours and GRN mRNA quantified by qPCR. Housekeeping genes for normalization were GAPDH and PPIA, and mRNA fold change (FC) was normalized to sNTC.
36 additional ASOs were designed with different modifications and base walking around selected ASOs. The effect of increasing doses of these ASOs was assessed in the human neuroblastoma cell line SK-N-AS following transfection. Relative GRN mRNA levels in SK-N-AS cells after treatment was assessed 48-hours post-transfection, and data from exemplary ASOs is shown in FIGS. 5A and 5B.
Additional chemical modifications, including LNA, modifications were made to CO-3423. SK-N-AS cells were transfected with increasing concentrations of the LNA/PS modified ASOs and GRN mRNA quantified by qPCR. ASOs including different LNA modifications of CO-3423 had similar efficacy (i.e, similar increased GRN mRNA expression). GRN mRNA was normalized to the average fold-change of cells treated with two steric non-targeting control ASOs (CO-3772 and CO-1589 (sNTC1)).
The effect of ASO length on GRN gene expression modulation was also investigated. SK-N-AS cells were transfected with increasing concentrations of the longer ASOs and GRN mRNA quantified by qPCR. Increasing the length of CO-3423 increased the potency of the ASO, as shown in Table 4. mRNA was normalized to the average fold change of cells treated with two steric non-targeting control ASOs (CO-3772 and CO-1589 (sNTC1)).
To determine whether variations in the PO/PS internucleotide bond linkages impacted the ability of CO-3423 and CO-3431 to modulate gene expression, several modified ASOs based on these parent ASOs were prepared. SK-N-AS cells were transfected with increasing concentrations of the mixed PO/PS bond ASOs described in Tables 5 and 6, and GRN mRNA quantified by qPCR.
GRN mRNA fold-change after treatment with mixed PO/PS bond versions of CO-3423 is shown in Table 5. mRNA was normalized to the average fold change of cells treated with steric nontargeting controls (CO-3772, CO-1589 (sNTC1), and CO-1929 (sNTC3)).
GRN mRNA fold-change after treatment with mixed PO/PS bond versions of CO-3431 is shown in Table 6. mRNA was normalized as described above.
To further assess the effect of additional modifications on the ability of CO-3423 parent ASO to modulate GRN gene expression, additional LNA tiling and PO bond modifications were incorporated to CO-3423. SK-N-AS cells were transfected with increasing concentrations of the modified ASOs and GRN mRNA quantified by qPCR. CO-3423 was used for comparison. GRN mRNA was normalized to the average fold-change of cells treated with a steric non-targeting control ASO, CO-1589 (sNTC1).
To further assess the effect of modifications on the ability of CO-3463 parent ASO to modulate GRN gene expression, ASOs based on this ASOS incorporating additional LNA modifications were prepared and compared to […]. SK-N-AS cells were transfected with increasing concentrations of the ASOs and GRN mRNA quantified by qPCR. GRN mRNA was normalized to the average fold-change of cells treated with a steric non-targeting control ASO, CO-1589 (sNTC1).
68 additional ASOs were designed to target intergenic enhancers (eRNA). 48 hours post-transfection, the cells were collected for GRN mRNA analysis using qPCR. CO-1589, a steric nontargeting control ASO, was used as a control. GRN mRNA was normalized to cells treated with CO-1589.
The best hits from these ASOs were tested in a dose escalation study. Cells were incubated for 48 hours. Subsequently, the cells were collected for mRNA quantification via RT-qPCR. […]

[1] = Table 11, 48 hours, normalized to CO-1589
[2] = Table 12, normalized to CO-1589
[3] = Table 9, 48 hours post-transfection, normalized to CO-1589
[4] = Table 13, normalized to CO-1589
[5] = Table 4, normalized to CO-3772 and CO-1589 (sNTC1)
[6] = Table 10, 48 hours, normalized to CO-1589

## CO-6443: ASO designed to target an intragenic enhancer RNA (eRNA) (eG*e[5mC]*e[5mC]*e[5mC]*eT*eG*eA*e[5mC]*eA*e[5mC]*eG*e[5mC]*eA*e[5mC]*e[5mC]*eT*eT*eA*e[5mC]*eA)
[1]
  hGRN mRNA FC: 1.0 FC

## CO-6403: ASO based on parent ASO CO-3462 (antisense eG*eG*eT*eA*eG*eG*eA*dG*dA*dA*dT*d[5mC]*dG*d[5mC]*dT*dT*dT*eG*eG*eG*eA*eG*e[5mC]*eA)
[2]
  30 nM FC (GRN mRNA): 1.6 FC
  60 nM FC (GRN mRNA): 2.2 FC
  120 nM FC (GRN mRNA): 2.4 FC

## CO-6450: ASO designed to target an intragenic enhancer RNA (eRNA) (e[5mC]*eA*eG*eT*eG*eG*e[5mC]*e[5mC]*eT*eT*eG*eT*e[5mC]*e[5mC]*eA*eG*e[5mC]*eT*e[5mC]*eG)
[1]
  hGRN mRNA FC: 0.9 FC

## CO-4590: ASO designed to target intergenic enhancers (eRNA) (antisense eG*eT*e[5mC]*eA*eA*eA*eG*eT*e[5mC]*eG*eA*eG*eG*e[5mC]*e[5mC]*eT*eA*e[5mC]*e[5mC]*e[5mC])
[3]
  hGRN mRNA FC: 1.3 FC

## CO-6417: ASO based on parent ASOs CO-4363 and CO-4364 (eG*eG*eA*e[5mC]*lT*eT*eG*eG*lG*eA*eG*eT*lG*eG*eT*eG*lA*e[5mC]*eT*eG*eA)
[4]
  30 nM FC (GRN mRNA): 1.4 FC
  60 nM FC (GRN mRNA): 2.3 FC
  120 nM FC (GRN mRNA): 2.8 FC

## CO-4589: ASO designed to target intergenic enhancers (eRNA) (antisense e[5mC]*eG*e[5mC]*eA*eG*eG*e[5mC]*eT*eA*eG*eG*eA*eG*eT*eA*e[5mC]*e[5mC]*e[5mC]*eA*eT)
[3]
  hGRN mRNA FC: 1.1 FC

## CO-4124: GRN paRNA-targeting ASO; longer ASO related to CO-3423 (antisense eG*eA*e[5mC]*eT*eT*eG*eG*eG*eA*eG*eT*eG*eG*eT*eG*eA*e[5mC]*eT*eG*eA)
[5]
  30 nM FC (GRN mRNA): 1.2 FC
  60 nM FC (GRN mRNA): 1.7 FC
  120 nM FC (GRN mRNA): 1.7 FC
[3]
  hGRN mRNA FC: 1.3 FC
[6]
  3.75 nM FC (GRN mRNA): 1.0 FC
  7.5 nM FC (GRN mRNA): 1.0 FC
  15 nM FC (GRN mRNA): 1.0 FC
  30 nM FC (GRN mRNA): 1.2 FC
  60 nM FC (GRN mRNA): 1.4 FC
  120 nM FC (GRN mRNA): 1.9 FC

## CO-4591: ASO designed to target intergenic enhancers (eRNA) (antisense eG*eA*eT*eA*eG*eT*eT*eG*eG*e[5mC]*e[5mC]*e[5mC]*e[5mC]*eT*e[5mC]*eG*eG*eA*eG*eT)
[3]
  hGRN mRNA FC: 1.1 FC

## CO-6513: ASO based on parent ASO CO-3462 (antisense eT*eA*eGeGeAeGeAeAeT*e[5mC]*eG*e[5mC]*eT*eT*eT*eG*eG*eG*eA*eG)
[2]
  30 nM FC (GRN mRNA): 1.3 FC
  60 nM FC (GRN mRNA): 2.7 FC
  120 nM FC (GRN mRNA): 1.8 FC

## CO-6432: ASO designed to target an intragenic enhancer RNA (eRNA) (eG*eA*eG*eA*eA*e[5mC]*eG*e[5mC]*eT*eA*e[5mC]*e[5mC]*eA*e[5mC]*eG*eG*eA*e[5mC]*e[5mC]*eT)
[1]
  hGRN mRNA FC: 1.0 FC

## CO-6515: ASO based on parent ASO CO-3462 (antisense eT*eA*eGeGeAeGeAeAeTe[5mC]eGe[5mC]eT*eT*eT*eG*eG*eG*eA*eG)
[2]
  30 nM FC (GRN mRNA): 1.2 FC
  60 nM FC (GRN mRNA): 1.8 FC
  120 nM FC (GRN mRNA): 1.7 FC

## CO-4644: ASO designed to target intergenic enhancers (eRNA) (antisense eG*eT*eT*eA*eA*eG*eT*eA*e[5mC]*eG*eT*eG*eA*e[5mC]*e[5mC]*e[5mC]*eT*eA*eT*e[5mC])
[3]
  hGRN mRNA FC: 1.1 FC

## CO-4651: ASO designed to target intergenic enhancers (eRNA) (antisense eT*eA*eG*eG*e[5mC]*eA*e[5mC]*e[5mC]*e[5mC]*eA*eA*eG*eG*e[5mC]*eT*eT*eT*eA*eT*eT)
[3]
  hGRN mRNA FC: 1.3 FC

## CO-6429: ASO based on parent ASOs CO-4363 and CO-4364 (eA*eG*eG*eG*eA*e[5mC]*eT*eT*eG*eG*eG*eA*eG*eT*eG*eG*eT*eG*eA*e[5mC]*eT*eG*eA*eA*e[5mC]*e[5mC])
[4]
  30 nM FC (GRN mRNA): 1.0 FC
  60 nM FC (GRN mRNA): 1.5 FC
  120 nM FC (GRN mRNA): 1.4 FC

## CO-6413: ASO based on parent ASOs CO-4363 and CO-4364 (antisense eG*eG*eA*e[5mC]*eT*dT*dG*dG*eG*dA*dG*dT*eG*dG*dT*dG*eA*e[5mC]*eT*eG*eA)
[4]
  30 nM FC (GRN mRNA): 1.0 FC
  60 nM FC (GRN mRNA): 0.6 FC
  120 nM FC (GRN mRNA): 0.7 FC

## CO-6410: ASO based on parent ASO CO-3462 (antisense eT*eAeG*eG*eAeG*eA*eAeT*e[5mC]*eGe[5mC]*eT*eTeT*eG*eGeG*eA*eG)
[2]
  30 nM FC (GRN mRNA): 1.1 FC
  60 nM FC (GRN mRNA): 1.0 FC
  120 nM FC (GRN mRNA): 1.6 FC

## CO-6414: ASO based on parent ASOs CO-4363 and CO-4364 (antisense eG*eG*eA*l[5mC]*eT*lT*eG*lG*eG*lA*eG*lT*eG*lG*eT*lG*eA*l[5mC]*eT*eG*eA)
[4]
  30 nM FC (GRN mRNA): 1.6 FC
  60 nM FC (GRN mRNA): 1.4 FC
  120 nM FC (GRN mRNA): 1.3 FC

## CO-6405: ASO based on parent ASO CO-3462 (antisense eG*eG*eT*eA*eG*dG*dA*eG*dA*dA*eT*d[5mC]*dG*e[5mC]*dT*dT*eT*dG*dG*eG*eA*eG*e[5mC]*eA)
[2]
  30 nM FC (GRN mRNA): 1.1 FC
  60 nM FC (GRN mRNA): 1.3 FC
  120 nM FC (GRN mRNA): 1.3 FC

## CO-4363: longer ASO based on CO-3423 (antisense eG*eG*eA*e[5mC]*eT*eT*eG*eG*eG*eA*eG*eT*eG*eG*eT*eG*eA*e[5mC]*eT*eG*eA)
[5]
  30 nM FC (GRN mRNA): 1.3 FC
  60 nM FC (GRN mRNA): 2.2 FC
  120 nM FC (GRN mRNA): 1.8 FC
[4]
  30 nM FC (GRN mRNA): 1.6 FC
  60 nM FC (GRN mRNA): 1.7 FC
  120 nM FC (GRN mRNA): 1.7 FC

## CO-4637: ASO designed to target intergenic enhancers (eRNA) (antisense eT*eA*eA*eG*eG*eT*eG*eT*eA*eG*eG*eA*e[5mC]*eA*eG*eT*e[5mC]*eT*eG*eA)
3.75 nM to 120 nM, 48 hours
  hit identification (GRN mRNA dose escalation): initial hits
[3]
  hGRN mRNA FC: 0.9 FC
[6]
  3.75 nM FC (GRN mRNA): 1.1 FC
  7.5 nM FC (GRN mRNA): 1.1 FC
  15 nM FC (GRN mRNA): 1.2 FC
  30 nM FC (GRN mRNA): 1.1 FC
  60 nM FC (GRN mRNA): 1.2 FC
  120 nM FC (GRN mRNA): 1.3 FC
